Results reported in patent publication US8629273B2, “Diazinylpyrazolyl compounds” (Bayer Intellectual Property GmbH, priority 2009, dated 2014).

Legend:
[1] = tested on: larvae of the mustard beetle (Phaedon cochleariae); test: Phaedon test (PHAECO spray treatment); assay type: in vivo; conditions: after 7 days
Description: (§1) Solvents: 78.0 parts by weight of acetone • • 1.5 parts by weight of dimethyl formamide Emulsifier: 0.5 part by weight of alkylaryl polyglycol ether To produce a suitable preparation of active compound, 1 part by weight of active compound is mixed with the stated amounts of solvent and emulsifier, and the concentrate is diluted with emulsifier-containing water to the desired concentration. Discs of Chinese cabbage leaves (Brassica pekinensis) are sprayed with an active compound preparation of the desired concentration and, after drying, populated with larvae of the mustard beetle (Phaedon cochleariae). After 7 days, the activity in % is determined. 100% means that all beetle larvae have been killed; 0% means that none of the beetle larvae have been killed. The test was carried out and evaluated as described in Example B.4.

[2] = tested on: Lucilia cuprina larvae; test: Lucilia cuprina test (LUCICU); assay type: in vivo; conditions: 100 ppm, treated horse meat, after 2 days
Description: Solvent: Dimethyl Sulphoxide To produce a suitable preparation of active compound, 10 mg of active compound are mixed with 0.5 ml of dimethyl sulphoxide, and the concentrate is diluted with water to the desired concentration. Containers containing horse meat treated with the active compound preparation of the desired concentration are populated with Lucilia cuprina larvae. After 2 days, the kill in % is determined. 100% means that all larvae have been killed; 0% means that none of the larvae have been killed.

[3] = logP by HPLC on reversed-phase columns (C 18), EU Guideline 79/831 Annex V.A8; assay type: physicochemical; conditions: for chromatographic logP: reversed-phase HPLC column (C 18)
[4] = tested on: Boophilus microplus; test: Boophilus microplus test (BOOPMI injection); assay type: in vivo; conditions: 20 μg/animal, injected into the abdomen, after 7 days
Description: Solvent: Dimethyl Sulphoxide To produce a suitable preparation of active compound, 10 mg of active compound are mixed with 0.5 ml of solvent, and the concentrate is diluted with water to the desired concentration. The active compound solution is injected into the abdomen (Boophilus microplus) and the animals are transferred into dishes and stored in a climatized room. The activity is monitored for deposition of fertile eggs. After 7 days, the activity in % is determined. 100% means that none of the ticks has laid fertile eggs.

[5] = tested on: caterpillars of the army worm (Spodoptera frugiperda); test: Spodoptera frugiperda test (SPODFR spray treatment); assay type: in vivo; conditions: after 7 days
Description: as §1, with “maize” for “Chinese cabbage”, “(Zea mays)” for “(Brassica pekinensis)”, “caterpillars” for “larvae”, “army worm (Spodoptera frugiperda).” for “mustard beetle (Phaedon cochleariae).”, “caterpillars” for “beetle larvae”, “B.5.” for “B.4.”

[6] = tested on: adult Musca domestica; test: Musca domestica test (MUSCDO); assay type: in vivo; conditions: treated sponge
Description: Solvent: Dimethyl sulphoxide To prepare a suitable preparation of active compound, 10 mg of active component are mixed with 0.5 ml of dimethyl sulphoxide, and the concentrate is diluted with water to the desired concentration. Vessels containing a sponge which had been treated with the active compound preparation of the desired concentration are populated with adult Musca domestica. After the desired period of time, the kill in % is determined. 100% means that all flies have been killed; 0% means that none of the flies have been killed.

[7] = tested on: Ctenocephalides felis; test: Ctenocephalides felis oral (CTECFE); assay type: in vivo; conditions: 100 ppm in citrated cattle blood, after 2 days
Description: Solvent: 1 part by weight of dimethyl sulphoxide To produce a suitable preparation of active compound, 10 mg of active compound are mixed with 0.5 ml of dimethyl sulphoxide. One part of the concentrate is diluted with citrated cattle blood, and the desired concentration is prepared. 20 unfed adult fleas (Ctenocephalides felis) are placed into a chamber whose top and bottom ends are closed with gauze. A metal cylinder whose bottom end is closed with parafilm is placed onto the chamber. The cylinder contains the blood/active compound preparation, which can be taken up by the fleas through the parafilm membrane. After 2 days, the kill in % is determined. 100% means that all fleas have been killed; 0% means that none of the fleas have been killed.

[8] = ** LC-MS in the neutral range, pH 7.8, 0.001 molar aqueous ammonium bicarbonate and acetonitrile
[9] = * LC-MS in the acidic range, pH 2.7, 0.1% aqueous formic acid and acetonitrile
[10] = pH 7.8, ** LC-MS in the neutral range, pH 7.8, 0.001 molar aqueous ammonium bicarbonate and acetonitrile

Row | Structure (SMILES) | logP [3, 8] | logP [3, 9] | activity (beetle larvae killed) ([1]; 100 g/ha) | kill [2] | activity (no deposition of fertile eggs) [4] | kill [7] | further results
1 | COC=Nc1c(-c2ccc(Cl)c(C(F)(F)F)c2)c(C(F)(F)F)nn1-c1ncccn1 [Example 1-91] | – | 3.71 | – | – | – | – | –
2 | CN(C)C=Nc1c(-c2ccc(Cl)cc2)c(C(F)(F)Cl)nn1-c1ncccn1 [Example 1-4] | – | 2.8* | 100% | – | – | – | –
3 | COc1ccc(-c2c(C(F)(F)F)nn(-c3ncccn3)c2N=CN(C)C)cc1 [Example 1-5] | – | 1.87* | – | – | 100% | – | –
4 | CC(C)Oc1nccnc1-n1nc(C(F)(F)F)c(-c2cc(Cl)cc(C(F)(F)F)c2)c1N=CN(C)C [Example 2-3] | – | 5.17* | – | – | – | – | –
5 | Cc1cnc(-n2nc(C(F)(F)F)c(-c3ccc(Cl)c(Cl)c3)c2N=CN(C)C)nc1 [Example 1-6] | – | 3.58* | – | – | – | – | –
6 | CN(C)C=Nc1c(-c2ccc(Cl)c(Cl)c2)c(C(F)(F)F)nn1-c1ncccn1 [Example 1-3] | – | 3.37* | 100% | 100% | 100% | 100% | –
7 | CC(C)O/C=N/c1c(-c2cc(Cl)cc(C(F)(F)F)c2)c(C(F)(F)F)nn1-c1ncccn1 [Example 1-13, isopropyl {4-[3-chloro-5-(trifluoromethyl)phenyl]-1-(pyrimidin-2-yl)-3-(trifluoromethyl)-1H-pyrazol-5-yl}imidoformate] | – | – | 100% | 100% | 100% | 95% | chromatographic logP [3, 10]: 4.88; activity (caterpillars killed) ([5]; 100 g/ha): 100%; kill ([6]; 20 ppm): 100%
8 | CN(C)/C=N/c1c(-c2cc(Cl)cc(Br)c2)c(C(F)(F)F)nn1-c1ncccn1 [Example 1-9, N′-[4-(3-bromo-5-chlorophenyl)-1-(pyrimidin-2-yl)-3-(trifluoromethyl)-1H-pyrazol-5-yl]-N,N-dimethylimidoformamide] | – | – | 100% | 100% | 100% | 100% | chromatographic logP ([3]; pH 2.7, * LC-MS in the acidic range, pH 2.7, 0.1% aqueous formic acid and acetonitrile): 3.71; activity (caterpillars killed) ([5]; 100 g/ha): 100%
9 | FC(F)(F)c1cc(Cl)cc(-c2c(C(F)(F)F)nn(-c3ncccn3)c2NCc2ccccc2)c1 [compound (XX), reference compound] | – | – | – | – | – | – | activity (beetle larvae killed) ([1]; 4 g/ha): 0%; activity (caterpillars killed) ([5]; 20 g/ha): 0%
10 | COc1ccc(C=Nc2c(-c3cc(Cl)c4c(c3)OCO4)c(C(F)(F)C(F)F)nn2-c2nccnc2OC)cc1 [Example 2-12] | 4.41** | – | 100% | – | – | – | activity (caterpillars killed) ([5]; 100 g/ha): 100%
11 | FC(F)(F)c1cc(Cl)cc(-c2c(C(F)(F)F)nn(-c3ncccn3)c2NCc2ccc(Cl)cc2)c1 [compound (XXIII), reference compound] | – | – | – | – | – | – | activity (beetle larvae killed) ([1]; 20 g/ha): no activity
12 | CN(C)C=Nc1c(-c2cccc(Cl)c2)c(C(F)(F)F)nn1-c1ncccn1 [Example 1-8] | – | 2.65* | 100% | – | – | – | –
13 | CN(C)C=Nc1c(-c2ccc(Cl)cc2)c(C(F)(F)F)nn1-c1ncc(Cl)cn1 [Example 1-108] | – | 3.47* | – | – | – | – | –
14 | COc1nccnc1-n1nc(C(F)(F)F)c(-c2cc(Cl)c(Cl)c(Cl)c2)c1/N=C/c1ccccc1 [Example 2-15, 1-(3-methoxypyrazin-2-yl)-N-phenylmethylene-4-(3,4,5-trichlorophenyl)-3-(trifluoromethyl)-1H-pyrazol-5-amine] | – | – | – | 100% | 100% | 90% | chromatographic logP [3, 10]: 6.03
15 | CN(C)C=Nc1c(-c2cc(Cl)cc(C(F)(F)F)c2)c(C(F)(F)F)nn1-c1cnccn1 [Example 2-4] | – | 4.32* | – | – | – | – | –
16 | COc1nccnc1-n1nc(C(F)(F)F)c(-c2cc(Cl)cc(C(F)(F)F)c2)c1N=CN(C)C [Example 2-1] | – | 4.52* | – | – | – | 80% | –
17 | CCOc1nccnc1-n1nc(C(F)(F)F)c(-c2cc(Cl)cc(C(F)(F)F)c2)c1N=CN(C)C [Example 2-2] | – | 4.86* | – | – | – | – | –
18 | Cc1nn(-c2ncccn2)c(N=CN(C)C)c1-c1ccc(Cl)cc1 [Example 1-7] | – | 1.09* | 100% | – | – | – | –
19 | COc1ccc(C=Nc2c(-c3cc(Cl)c4c(c3)OCO4)c(C(F)(F)F)nn2-c2nccnc2OC)cc1 [Example 2-5] | 4.5** | – | – | 100% | 100% | 100% | –
20 | COc1ccc(C=Nc2c(-c3cc(Cl)cc(C(F)(F)F)c3)c(C(F)(F)C(F)F)nn2-c2nccnc2OC)cc1 [Example 2-10] | 5.29** | – | – | – | – | – | –
21 | FC(F)(F)c1cc(Cl)cc(-c2c(C(F)(F)F)nn(-c3ncccn3)c2N=Cc2cccc(Br)c2)c1 [Example 1-39] | – | – | 100% | 100% | 100% | 80% | kill ([6]; 100 ppm): 100%

More lines, main results first:

Row | logP [3, 8] | logP [3, 9] | Structure (SMILES) | activity (beetle larvae killed) ([1]; 100 g/ha) | kill [2] | activity (no deposition of fertile eggs) [4] | kill [7] | further results
22 | 4.85** | – | COc1cc(C=Nc2c(-c3cc(Cl)cc(C(F)(F)F)c3)c(C(F)(F)F)nn2-c2ncccn2)cc(OC)c1OC [Example 1-28] | 100% | 100% | 100% | 95% | activity (caterpillars killed) ([5]; 100 g/ha): 83%; kill ([6]; 100 ppm): 100%
23 | 4.86** | – | FC(F)C(F)(F)c1nn(-c2ncccn2)c(N=Cc2ccccc2)c1-c1cc(Cl)cc(C(F)(F)F)c1 [Example 1-19] | 100% | 100% | 100% | 100% | activity (caterpillars killed) ([5]; 100 g/ha): 100%; kill ([6]; 100 ppm): 100%
24 | 5.64** | – | FC(F)(F)c1cc(Cl)cc(-c2c(C(F)(F)F)nn(-c3ncccn3)c2N=Cc2ccccc2Br)c1 [Example 1-31] | 100% | 100% | 100% | 90% | kill ([6]; 20 ppm): 90%
25 | 3.84**; | 3.89* | CN(C)C=Nc1c(-c2cc(Cl)cc(C(F)(F)F)c2)c(C(F)(F)F)nn1-c1ncccn1 [Example 1-2] | 100% | 100% | 95% | 100% | –
26 | 5.53** | – | FC(F)(F)c1cc(Cl)cc(-c2c(C(F)(F)F)nn(-c3ncccn3)c2N=Cc2ccc(Cl)cc2)c1 [Example 1-16] | 100% | – | 100% | – | activity (beetle larvae killed) ([1]; 20 g/ha): 100%
27 | 4.11** | – | FC(F)(F)c1nn(-c2ncccn2)c(N=Cc2ccccc2)c1-c1cc(Br)c2c(c1)CCO2 [Example 1-32] | 100% | 100% | 100% | 100% | –
28 | 5.56** | – | COc1nccnc1-n1nc(C(F)(F)F)c(-c2cc(Cl)cc(C(F)(F)F)c2)c1N=Cc1ccccc1 [Example 2-9] | 100% | 100% | 100% | 90% | kill ([6]; 20 ppm): 100%
29 | 5.01** | – | CCOC(C)=Nc1c(-c2cc(Cl)cc(C(F)(F)F)c2)c(C(F)(F)F)nn1-c1ncccn1 [Example 1-14] | 100% | 100% | 80% | 90% | kill ([6]; 100 ppm): 80%
